Assay results as given in PMC9768319 (iScience, 2022).
Like-named read-outs stand apart in the source and are kept apart here.

How the values were obtained:
[1] = Tolerability, single intra-peritoneal injection in non-tumor-bearing mice; format: in vivo
[2] = system: AMP-Activated Protein Kinase (AMPK); assay: AMPK Thr172 phosphorylation immunoblot; format: cell-based, murine; conditions: KPC1242, 0.7 μM MMe or 3 μM pCF3-MMe
[3] = system: cancer cells (KPC1242, Panc-1, AsPC-1, HCT-116, MDA-MB-231, OVCAR-4, OVCAR-8); assay: Cell confluence across the battery of cancer cell lines; format: cell-based; conditions: escalating concentrations (0.1 µM-10 µM)
[4] = system: KPC1242 cells; assay: Ki-67 proliferation staining; format: cell-based, murine; conditions: KPC1242, 24-h treatment, MMe 0.7 μM or pCF3-MMe 3 μM
[5] = system: AsPC-1 cells; assay: TMRE retention by flow cytometry; format: cell-based, human; conditions: AsPC-1, serum-starved, 1 h treatment
[6] = Tolerability, daily injection for 5 consecutive days in non-tumor-bearing mice; format: in vivo; conditions: daily for 5 consecutive days, 25 μg/mouse to 1 mg/mouse
[7] = system: HPNE and HPSC cells; format: cell-based, human; conditions: for sensitivity of normal, non-transformed cells compared to cancer cells: HPNE and HPSC vs cancer cells
[8] = format: in vivo, mice
[9] = system: KPC1242 cells; assay: Luminescent ATP detection assay; format: cell-based, murine; conditions: KPC1242, 24 h, 0.7 μM MMe or 3 μM pCF3-MMe
[10] = system: HPSC cells; assay: TMRE retention by flow cytometry; format: cell-based, human; conditions: serum-starved, 1 h treatment
[11] = system: Panc-1 cells; assay: Cell confluence growth inhibition; format: cell-based, human
[12] = after administration; cited from earlier work
[13] = system: pancreatic, breast, and colon cancers; conditions: cited from earlier work

Structure (SMILES)	AMPK activation (Thr172 phosphorylation) [2]	cell confluency [3]	reduction in Ki-67 levels [4]	TMRE accumulation within mitochondria [5]	tolerability of repeated injection [6]	sensitivity of normal, non-transformed cells compared to cancer cells [7]	reduction in toxicity to normal cells compared to MMe [7] [fold]	Levels of ATP [9]	TMRE accumulation within mitochondria [10]	further results
N=C(N)NC(=N)NCCCCCCCCCC[P+](c1ccc(C(F)(F)F)cc1)(c1ccc(C(F)(F)F)cc1)c1ccc(C(F)(F)F)cc1.[Br-] [pCF3-MMe, (10-(3-carbamimidoylguanidino)decyl)tris(4-(trifluoromethyl)phenyl)phosphonium bromide]	significant increase in AMPK activation	decreased in a concentration-dependent manner	20-30%	significantly reduced TMRE accumulation	tolerated a 1 mg dose	more than a log-unit less sensitive	~10	significantly reduced	did not affect TMRE accumulation	mice surviving ([1]; single intra-peritoneal injection of 1 mg): 100%; toxic effects toward non-transformed HPNE and HPSC-1 cells ([7]; compared to parent MMe and mCF3-MMe): least toxic effects; detection in the blood and liver ([8]; 2 h after intra-tumoral injection of 1 mg): undetectable; detection in the blood and liver ([8]; 6 h after injection (not shown)): barely detectable above the signal-to-noise ratio; levels within the tumors ([8]; 24 h after injection, 1 mg/mouse): measurable levels
COc1ccc([P+](CCCCCCCCCCNC(=N)CC(=N)N)(c2ccc(OC)cc2)c2ccc(OC)cc2)cc1.[Br-] [pMeO-MMe, [10-(2-carbamimidoylethanimidamido)decyl]tris(4-methoxyphenyl)phosphonium bromide]										confluence of human pancreatic cancer cells ([11]; Panc-1 (Figure S5), escalating concentrations): concentration-dependent decrease in confluence; efficacy in pancreas cancer cells ([11]; in contrast to the fluorinated compound): lower efficacy
COC1=C(OC)C(=O)C(CCCCCCCCCC[P+](c2ccccc2)(c2ccccc2)c2ccccc2)=C(C)C1=O [MitoQ]										half-life [12]: ~30 min
N=C(N)NC(=N)NCCCCCCCCCC[P+](c1ccccc1)(c1ccccc1)c1ccccc1.[Br-] [MMe, 10-[(carbamimidamidomethanimidoyl)amino]decyl-triphenylphosphonium bromide]	significant increase in AMPK activation	decreased in a concentration-dependent manner	20-30%	significantly reduced TMRE accumulation	succumbed to 4-fold lower doses	more than a log-unit less sensitive		significantly reduced	did not affect TMRE accumulation	mortality after single injection ([1]; single intra-peritoneal injection of 250 μg or 1 mg): significant and rapid mortality; fold more efficacious compared to metformin [13]: 100- to 1000 fold
N=C(N)NC(=N)NCCCCCCCCCC[P+](c1cccc(C(F)(F)F)c1)(c1cccc(C(F)(F)F)c1)c1cccc(C(F)(F)F)c1.[Br-] [mCF3-MMe, (10-(3-carbamimidoylguanidino)decyl)tris(3-(trifluoromethyl)phenyl)phosphonium bromide]		decreased in a concentration-dependent manner				more than a log-unit less sensitive	~10			
